Earlier results on 20 compounds are cited in US20170259275A1, “PROCESS FOR SEPARATING AMINO AND/OR ORGANIC ACID-CONTAINING PARTICLES FROM A MIXTURE” (Sanovations B.V., priority 2014, published 2017).

The conditions of series [1]: 25° C., water.
For series [2] the following is noted: solid, crystalline form.

With `C[C@H](N)C(=O)O` [Alanine], the “Aqueous Solubility” value in series [1] was 16.65 g/100 g. Besides, the “Crystal Density” value in series [2] was 1.371 g/mL.
Turning to `N=C(N)NCCC[C@H](N)C(=O)O` [Arginine], the “Crystal Density” value in series [2] is 1.325 g/mL.
As for `NC(=O)C[C@H](N)C(=O)O` [Asparagine], in series [1], the “Aqueous Solubility” value is 3.53 g/100 g.
With `N[C@@H](CC(=O)O)C(=O)O` [Aspartic Acid], the “Crystal Density” value in series [2] was 1.636 g/mL.
Turning to `N[C@@H](CS)C(=O)O` [Cysteine], the “Aqueous Solubility” value in series [1] is recorded as 28 g/100 g. Moreover, the “Crystal Density” value in series [2] was 1.495 g/mL.
As to `N[C@@H](CCC(=O)O)C(=O)O` [Glutamic Acid], the “Crystal Density” value in series [2] was 1.566 g/mL.
With `NC(=O)CC[C@H](N)C(=O)O` [Glutamine], the “Aqueous Solubility” value in series [1] is recorded as 2.5 g/100 g.
Take `NCC(=O)O` [Glycine]: the “Crystal Density” value in series [2] is 1.598 g/mL.
Regarding `N[C@@H](Cc1c[nH]cn1)C(=O)O` [Histidine], in series [1], the “Aqueous Solubility” value is 4.19 g/100 g. Further, the “Crystal Density” value in series [2] is 1.412 g/mL.
With `CC[C@H](C)[C@H](N)C(=O)O` [Isoleucine], the “Aqueous Solubility” value in series [1] is reported as 4.117 g/100 g. Besides, the “Crystal Density” value in series [2] is 1.201 g/mL.
In the case of `CC(C)C[C@H](N)C(=O)O` [Leucine], the “Aqueous Solubility” value in series [1] is listed as 2.426 g/100 g.
Regarding `NCCCC[C@H](N)C(=O)O` [Lysine], the “Aqueous Solubility” value in series [1] is given as 30 g/100 g. Besides, the “Crystal Density” value in series [2] is 1.237 g/mL.
For `CSCC[C@H](N)C(=O)O` [Methionine], the “Aqueous Solubility” value in series [1] was 3.381 g/100 g. In addition, the “Crystal Density” value in series [2] was 1.311 g/mL.
Take `N[C@@H](Cc1ccccc1)C(=O)O` [Phenylalanine]: the “Aqueous Solubility” value in series [1] is 2.965 g/100 g. Besides, the “Crystal Density” value in series [2] is 1.315 g/mL.
On to `O=C(O)[C@@H]1CCCN1` [Proline], for which, in series [2], the “Crystal Density” value was 1.376 g/mL.
For the compound `N[C@@H](CO)C(=O)O` [Serine], the “Crystal Density” value in series [2] was 1.582 g/mL.
Regarding `C[C@@H](O)[C@H](N)C(=O)O` [Threonine], the “Crystal Density” value in series [2] is 1.499 g/mL.
Regarding `N[C@@H](Cc1c[nH]c2ccccc12)C(=O)O` [Tryptophan], the “Aqueous Solubility” value in series [1] was 1.136 g/100 g. The “Crystal Density” value in series [2] was 1.303 g/mL.
For the compound `N[C@@H](Cc1ccc(O)cc1)C(=O)O` [Tyrosine], in series [2], the “Crystal Density” value was 1.403 g/mL.
Regarding `CC(C)[C@H](N)C(=O)O` [Valine], the “Aqueous Solubility” value in series [1] was 8.85 g/100 g. Further, the “Crystal Density” value in series [2] was 1.267 g/mL.
